The values below come from patent publication US7556794B2, “Pendant fatty acid imaging agents” (Molecular Insight Pharmaceuticals, Inc., priority 2002, dated 2009).

This data set can be described thus: Tissue distribution (radiometric analysis of excised organs) after tail vein injection of radiolabeled fatty acid analogs in rats. Format: in vivo, Sprague Dawley rats. The following applies: rat. The procedure:
Pharmacokinetic characterization was accomplished by radiometric analysis of heart, blood, lung, kidney, liver and other tissue at various times following administration of the 99mTc-labeled fatty acid analogs to rats. […] Six new compounds were evaluated at up to four time points each (5, 15, 60, and 120 minutes) with a minimum of three animals per time point. Non-anesthetized animals were injected with 20-50 μCi in 100 μl via the tail vein and sacrificed at increasing time points post injection. The organs were excised and counted in a gamma counter. Experiments were also conducted to compare the effects of injection media using 10% ethanol, 10% bovine serum albumin and 7% ursodeoxycholic acid on distribution.

Regarding `CC(CCCCCCCCCCCCc1ccc(I)cc1)CC(=O)O` (centres unmarked) [BMIPP], the “Percent injected dose per gram, Blood” value (15-min post injection, blood) is 1.30 ± 0.19 Percent injected dose per gram. Moreover, the “Percent injected dose per gram, Heart” value (15-min post injection, heart) is on record as 4.60 ± 0.63 Percent injected dose per gram. Besides, where the note is “15-min post injection, kidneys”, the “Percent injected dose per gram, Kidneys” value is 4.09 ± 0.82 Percent injected dose per gram. The “Percent injected dose per gram, Liver” value (15-min post injection, liver) is given as 2.97 ± 0.56 Percent injected dose per gram. Besides, the “Percent injected dose per gram, Lung” value (15-min post injection, lung) was 1.83 ± 0.22 Percent injected dose per gram. Further, the heart-to-blood ratio (at 15 minutes) was 2.2 and the heart-to-blood ratio (at 60 minutes) is reported as 1.6. Besides, the “blood retention / clearance (in words)” value (blood) is recorded as “slow blood clearance”. Moreover, where the note is “heart”, the “heart accumulation / extraction (in words)” value is “high extraction into the heart”. The “uptake in the heart” value runs as follows: (heart, at 15 minutes) 3.49 percent per organ; (heart, at 60 minutes) 1.62 percent per organ. Further, for the setting “heart, 10% ethanol versus 7% ursodeoxycholic acid injection media”, the “less heart uptake with ethanol injection media than with ursodeoxycholic acid” value is on record as roughly 75%. Also, the liver activity runs as follows: (liver, end of the 45 minute period (60 minutes)) 7.2 percent per organ; (liver, start of the 45 minute period (15 minutes)) 19.7 percent per organ.
